Assay results from PubChem BioAssay AID330 (DTP/NCI, 2004).
“And” between values parts separate entries of the source, which are not always exact repeats. Identical values can stand only once. Inconclusive results and toxic doses are left out. Rule for the calls: active = survival T/C of 150% or more; inactive = T/C below 125% in these data. Peptide text beside a SMILES is read from it. * marks the point of attachment. Cbz = O=C(OCc1ccccc1)*; Bn = c1ccc(C*)cc1

Tested on: P388 leukemia ip, CD2F1 mice, survival T/C
Assay: NCI In Vivo Anticancer Drug Screen. Data for tumor model P388 Leukemia (intraperitoneal) in CD2F1 (CDF1) mice
Conditions: endpoint: median survival time, higher = longer survival
Method in brief: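 Mice carrying the transplanted tumor received test compound or vehicle. Survival was recorded in each group, and the value is the treated-group measurement divided by that of the vehicle-treated control group.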

[1] = dose: 50.0 mg/kg/injection, schedule: Q01DX005 (ip), vehicle: saline with Tween-80
[2] = dose: 100.0 mg/kg/injection, schedule: Q01DX005 (ip), vehicle: saline with Tween-80
[3] = dose: 200.0 mg/kg/injection, schedule: Q01DX005 (ip), vehicle: saline with Tween-80
[4] = dose: 200.0 mg/kg/injection, schedule: Q01DX001 (ip), vehicle: saline
[5] = dose: 400.0 mg/kg/injection, schedule: Q01DX001 (ip), vehicle: saline
[6] = dose: 60.0 mg/kg/injection, schedule: Q01DX005 (ip), vehicle: saline with Tween-80
[7] = dose: 120.0 mg/kg/injection, schedule: Q01DX005 (ip), vehicle: saline with Tween-80
[8] = dose: 240.0 mg/kg/injection, schedule: Q01DX005 (ip), vehicle: saline with Tween-80
[9] = dose: 50.0 mg/kg/injection, schedule: Q01DX009 (ip), vehicle: saline with Tween-80
[10] = dose: 100.0 mg/kg/injection, schedule: Q01DX009 (ip), vehicle: saline with Tween-80
[11] = dose: 6.25 mg/kg/injection, schedule: Q01DX009 (ip), vehicle: saline
[12] = dose: 12.5 mg/kg/injection, schedule: Q01DX009 (ip), vehicle: saline
[13] = dose: 50.0 mg/kg/injection, schedule: Q01DX009 (ip), vehicle: saline
[14] = dose: 100.0 mg/kg/injection, schedule: Q01DX009 (ip), vehicle: saline
[15] = dose: 50.0 mg/kg/injection, schedule: Q01DX005 (ip), vehicle: Klucel (hydroxypropylcellulose) (HPC)
[16] = dose: 100.0 mg/kg/injection, schedule: Q01DX005 (ip), vehicle: Klucel (hydroxypropylcellulose) (HPC)
[17] = dose: 200.0 mg/kg/injection, schedule: Q01DX005 (ip), vehicle: Klucel (hydroxypropylcellulose) (HPC)

Measured: T/C

O=C1OC(=O)c2cc([N+](=O)[O-])cc3cccc1c23
inactive: [1] 108 % of control and 110 % of control (2×) | [2] 100 % of control and 103 % of control and 111 % of control | [3] 102 % of control and 110 % of control and 123 % of control | dose: 400.0 mg/kg/injection, schedule: Q01DX005 (ip), vehicle: saline with Tween-80 119 % of control

CC(C)(Oc1ccc(Cl)cc1)C(=O)OCCCC(=O)NC1CC(C)(C)N(O)C(C)(C)C1
inactive: [4] 105 % of control | [5] 115 % of control

OCCCC1CCCCN1 (stereo unspecified)
inactive: dose: 50.0 mg/kg/injection, schedule: Q01DX001 (ip), vehicle: saline 107 % of control | [4] 100 % of control

CCN(CC)C(=O)c1cncc(C(N)=O)c1
inactive: dose: 60.0 mg/kg/injection, schedule: Q01DX005 (ip), vehicle: Klucel (hydroxypropylcellulose) (HPC) 110 % of control | dose: 120.0 mg/kg/injection, schedule: Q01DX005 (ip), vehicle: Klucel (hydroxypropylcellulose) (HPC) 111 % of control | dose: 240.0 mg/kg/injection, schedule: Q01DX005 (ip), vehicle: Klucel (hydroxypropylcellulose) (HPC) 101 % of control

COc1ccc(C2COc3cc(OC(C)=O)c(OC(C)=O)cc3C2)cc1 (stereo unspecified)
inactive: [6] 103 % of control | [7] 103 % of control | [8] 103 % of control

N#CN=CN(Cc1ccccc1)Cc1ccccc1
inactive: [9] 101 % of control | [10] 96 % of control | dose: 200.0 mg/kg/injection, schedule: Q01DX009 (ip), vehicle: saline with Tween-80 93 % of control

COc1cc(C/C(=C\c2cc(OC)c(OC)c(OC)c2)[N+](=O)[O-])ccc1OCc1ccccc1
inactive: dose: 50.0 mg/kg/injection, schedule: Q01DX001 (ip), vehicle: Klucel (hydroxypropylcellulose) (HPC) 93 % of control | dose: 100.0 mg/kg/injection, schedule: Q01DX001 (ip), vehicle: Klucel (hydroxypropylcellulose) (HPC) 94 % of control

CC[n+]1c(/C=C/c2ccc(N(CCC(=O)O)CCC(=O)O)cc2)ccc2ccccc21
inactive: dose: 12.5 mg/kg/injection, schedule: Q04DX002 (ip), vehicle: saline with Tween-80 100 % of control | dose: 25.0 mg/kg/injection, schedule: Q04DX002 (ip), vehicle: saline with Tween-80 106 % of control | dose: 50.0 mg/kg/injection, schedule: Q04DX002 (ip), vehicle: saline with Tween-80 106 % of control

CC(=NC(C)C)Nc1ccc(Cl)cc1
inactive: dose: 25.0 mg/kg/injection, schedule: Q01DX009 (ip), vehicle: saline with Tween-80 107 % of control | [9] 105 % of control | [10] 92 % of control

C=C1C(C)C2C(Cc3ccccc3)NC(=O)C23C(OC(C)=O)/C=C/C(C)(O)CC(C)C/C=C/C3C1O (stereo unspecified)
inactive: dose: 3.13 mg/kg/injection, schedule: Q01DX009 (ip), vehicle: saline with Tween-80 121 % of control | dose: 6.25 mg/kg/injection, schedule: Q01DX009 (ip), vehicle: saline with Tween-80 124 % of control

Cc1cc2cc3n(c2nn1)N=C(Cl)CC3
inactive: [6] 86 % of control | [7] 101 % of control

COC(=O)C1(C(=O)OC)N=C(C)OO1
inactive: [11] 99 % of control and 97 % of control | [12] 101 % of control and 107 % of control | dose: 25.0 mg/kg/injection, schedule: Q01DX009 (ip), vehicle: saline 91 % of control and 97 % of control | [13] 96 % of control and 97 % of control | [14] 101 % of control

O=C(CNc1ccc(Cl)cc1)c1ccc(Cl)cc1
inactive: [15] 107 % of control | [16] 99 % of control | [17] 90 % of control

CCOC(=O)c1ccc(N2C(=O)C=CC2=O)cc1
inactive: dose: 3.12 mg/kg/injection, schedule: Q01DX009 (ip), vehicle: saline 98 % of control | [11] 98 % of control | [12] 96 % of control

CC(c1ccccc1)N1OC1(C)C (stereo unspecified)
inactive: dose: 12.5 mg/kg/injection, schedule: Q01DX005 (ip), vehicle: Klucel (hydroxypropylcellulose) (HPC) 101 % of control | dose: 25.0 mg/kg/injection, schedule: Q01DX005 (ip), vehicle: Klucel (hydroxypropylcellulose) (HPC) 106 % of control | [15] 102 % of control

CCCCCOn1nnc2ccccc21
inactive: dose: 100.0 mg/kg/injection, schedule: Q04DX003 (ip), vehicle: saline with Tween-80 101 % of control | dose: 200.0 mg/kg/injection, schedule: Q04DX003 (ip), vehicle: saline with Tween-80 101 % of control | dose: 400.0 mg/kg/injection, schedule: Q04DX003 (ip), vehicle: saline with Tween-80 101 % of control

O=C(O)CC1(C(=O)O)CC2C=CC1C2 (stereo unspecified)
inactive: [6] 104 % of control | [7] 91 % of control | [8] 91 % of control

CC(C)NC(=O)OCC#CCOC(=O)NC(C)C
inactive: [1] 98 % of control | [2] 90 % of control | [3] 90 % of control

Cc1ccc(NC(=S)SCc2ccccc2)cc1Cl
inactive: dose: 100.0 mg/kg/injection, schedule: Q04DX002 (ip), vehicle: saline 98 % of control | dose: 200.0 mg/kg/injection, schedule: Q04DX002 (ip), vehicle: saline 100 % of control | dose: 400.0 mg/kg/injection, schedule: Q04DX002 (ip), vehicle: saline 106 % of control

COc1cc(O)c2c(c1N)C(=O)c1ccccc1C2=O
inactive: [15] 105 % of control | [16] 106 % of control | [17] 101 % of control

CC(C)C(NC(=O)C(CSCc1ccccc1)NC(=O)OCc1ccccc1)C(=O)O (stereo unspecified) (Cbz-Cys(Bn)-Val-OH; configuration not given here)
inactive: [15] 97 % of control | [16] 88 % of control

O=NNc1nc2ccccc2[nH]1
inactive: dose: 3.12 mg/kg/injection, schedule: Q01DX009 (ip), vehicle: water 99 % of control | dose: 6.25 mg/kg/injection, schedule: Q01DX009 (ip), vehicle: water 103 % of control | dose: 12.5 mg/kg/injection, schedule: Q01DX009 (ip), vehicle: water 109 % of control | dose: 25.0 mg/kg/injection, schedule: Q01DX009 (ip), vehicle: water 103 % of control and 98 % of control | dose: 50.0 mg/kg/injection, schedule: Q01DX009 (ip), vehicle: water 100 % of control and 97 % of control | dose: 100.0 mg/kg/injection, schedule: Q01DX009 (ip), vehicle: water 97 % of control | dose: 200.0 mg/kg/injection, schedule: Q01DX009 (ip), vehicle: water 91 % of control

CC1CC(O)C(=O)C2(C)C1CC1OC(=O)CC3C(C)C(=O)C(O)C2C13 (stereo unspecified)
inactive: [1] 100 % of control | [2] 104 % of control | [3] 99 % of control

CCCCCCCCCCCCCCCCCC(=O)CC(=O)C(F)(F)F (tested in a mixture with another compound)
inactive: [9] 91 % of control | [10] 92 % of control

CCOP(=O)(Nc1ccc(C)cc1C)OCC
inactive: [13] 100 % of control | dose: 100.0 mg/kg/injection, schedule: Q01DX001 (ip), vehicle: saline 103 % of control | [14] 104 % of control | [4] 107 % of control | dose: 200.0 mg/kg/injection, schedule: Q01DX009 (ip), vehicle: saline 99 % of control | [5] 100 % of control

CCOC(OCC)(c1ccccc1)N(C)C
inactive: [6] 92 % of control | [7] 100 % of control | [8] 104 % of control

COC1=C(C)C(=O)c2c(c(COC(N)=O)c3n2CC2C3N2C)C1=O (stereo unspecified)
inactive: dose: 6.25 mg/kg/injection, schedule: Q04DX003 (ip), vehicle: saline with Tween-80 100 % of control | dose: 12.5 mg/kg/injection, schedule: Q04DX003 (ip), vehicle: saline with Tween-80 90 % of control

CCN(CC)CCNc1ccc([N+](=O)[O-])c2sc3cc(Cl)ccc3c(=O)c12
inactive: [1] 100 % of control | [2] 104 % of control | [3] 102 % of control
